# Source: patent US11071721B2, “Bicyclic amide compounds and methods of use thereof” (Genentech, Inc., priority 2016, dated 2021)
# Molecular target: human RIP1 kinase domain (2-375) (Homo sapiens (Human), UniProt Q13546)
# Assay: RIP1 kinase inhibition assay (Transcreener ADP biochemical enzyme assay)
# Conditions: Ki app (Morrison tight-binding fit); 50 nM enzyme, 50 uM ATP, 2 hours incubation, fluorescence polarization
# Method: RIP1 Kinase Inhibition Assays (Biochemical Assay):
# The compounds of the present invention were tested for their capacity to inhibit RIP K activity as described below.
# Enzyme assay: The ability of the receptor interacting protein kinase (RIPK1) to catalyze the hydrolysis of adenosine-5′-triphosphate (ATP) is monitored using the Transcreener ADP (adenosine-5′-diphosphate) assay (BellBrook Labs). Purified human RIP1 kinase domain (2-375) (50 nM) derived from a baculovirus-infected insect cell expression system is incubated with test compounds for 2 hours in 50 mM Hepes buffer (pH 7.5) containing 30 mM MgCl2, 1 mM dithiothreitol, 50 uM ATP, 0.002% Brij-35, and 0.5% dimethyl sulfoxide (DMSO). Reactions are quenched by the addition of 1× Bell Brooks Stop buffer B (20 mM Hepes (ph7.5), 40 mM ethylenediaminetetraacetic acid and 0.02% Brij-35) containing an additional 12 mM EDTA and 55 ug/mL ADP2 antibody and 4 nM ADP-AlexaFluor® 633 tracer. The tracer bound to the antibody is displaced by the ADP generated during the RIP1K reaction, which causes a decrease in fluorescence polarization that is measured by laser excitation at 633 nm with a FP microplate reader M1000. Fractional activity was plotted against test article concentration. Using Genedata Screener software (Genedata; Basel, Switzerland), the data were fit to the tight-binding apparent inhibition constant (Ki^app) Morrison equation [Williams, J. W. and Morrison, J. F. (1979) The kinetics of reversible tight-binding inhibition. Methods Enzymol 63: 437-67]. The following equation was used to calculate fractional activity and Ki^app:
# [formula] where [E]T and [I]T are the total concentrations of active enzyme and test article, respectively.
# human RIP1 kinase domain (2-375), sequence (Q13546 2-375): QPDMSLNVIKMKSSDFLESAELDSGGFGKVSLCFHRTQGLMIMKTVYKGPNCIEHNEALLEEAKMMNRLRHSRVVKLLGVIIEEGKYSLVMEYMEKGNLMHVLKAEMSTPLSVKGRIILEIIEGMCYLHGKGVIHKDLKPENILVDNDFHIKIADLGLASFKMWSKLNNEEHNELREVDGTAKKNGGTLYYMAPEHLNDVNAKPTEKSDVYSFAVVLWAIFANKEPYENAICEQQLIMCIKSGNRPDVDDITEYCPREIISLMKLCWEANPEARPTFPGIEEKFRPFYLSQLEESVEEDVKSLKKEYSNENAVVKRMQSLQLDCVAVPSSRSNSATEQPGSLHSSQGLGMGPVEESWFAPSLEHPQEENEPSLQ
row,SMILES,Ki [µM]
1,"COCCN(CC(F)(F)F)C(=O)c1nc2n(n1)[C@H](c1ccccc1)C[C@@H]2F (racemic) [Example 55, rac-(5S,7S)-7-fluoro-N-(2-methoxyethyl)-5-phenyl-N-(2,2,2-trifluoroethyl)-6,7-dihydro-5H-pyrrolo[1,2-b][1,2,4]triazole-2-carboxamide]",3.9
2,"O=C(c1nc2n(n1)[C@H](c1ccccc1)C[C@@H]2F)N(CC(F)(F)F)C1CC1 (racemic) [Example 59, rac-(5S,7S)-N-cyclopropyl-7-fluoro-5-phenyl-N-(2,2,2-trifluoroethyl)-6,7-dihydro-5H-pyrrolo[1,2-b][1,2,4|]triazole-2-carboxamide]",2.2
3,"O=C(c1nc2n(n1)[C@H](c1ccccc1)C[C@@H]2F)N(C1CC1)C1CC1 (racemic) [Example 61, rac-(5S,7S)-N,N-dicyclopropyl-7-fluoro-5-phenyl-6,7-dihydro-5H-pyrrolo[1,2-b] [1,2,4]triazole-2-carboxamide]",3.2
4,"Cc1cc2n(n1)CCN(C(=O)c1nc3n(n1)[C@H](c1ccccc1)C[C@@H]3F)C2 (racemic) [Example 63, (2-methyl-6,7-dihydro-4H-pyrazolo[1,5-a]pyrazin-5-yl)-[rac-(5S,7S)-7-fluoro-5-phenyl-6,7-dihydro-5H-pyrrolo[1,2-b][1,2,4]triazol-2-yl]methanone]",2.3
5,"O=C(c1nc2n(n1)[C@@H](c1ccccc1)C[C@H]2F)N1CCC[C@H]1C(F)F (racemic) [Example 64, [rac-(2S)-2-(difluoromethyl)pyrrolidin-1-yl]-[rac-(5R,7R)-7-fluoro-5-phenyl-6,7-dihydro-5H-pyrrolo[1,2-b][1,2,4]triazol-2-yl]methanone]",0.004
6,"O=C(c1nc2n(n1)[C@H](c1ccccc1)C[C@@H]2F)N1CCn2ccnc2C1 (racemic) [Example 68, 6,8-dihydro-5H-imidazo[1,2-a]pyrazin-7-yl-[rac-(5S,7S)-7-fluoro-5-phenyl-6,7-dihydro-5H-pyrrolo[1,2-b][1,2,4]triazol-2-yl]methanone]",0.049
7,"C[C@@H]1C[C@H](F)CN1C(=O)c1nc2n(n1)[C@H](c1ccccc1)C[C@@H]2F (racemic) [Example 70, [rac-(2R,4S)-4-fluoro-2-methyl-pyrrolidin-1-yl]-[rac-(5S,7S)-7-fluoro-5-phenyl-6,7-dihydro-5H-pyrrolo[1,2-b] [1,2,4]triazol-2-yl]methanone]",0.15
8,"O=C(c1nc2n(n1)[C@H](c1ccccc1)C[C@@H]2F)N1CC(F)(F)CC1CO (mixture of isomers) [Example 72, [4,4-difluoro-2-(hydroxymethyl)pyrrolodin-1-yl]-[rac-(5S,7S)-7-fluoro-5-phenyl-6,7-dihydro-5H-pyrrolo[1,2-b] [1,2,4]triazol-2-yl]methanone]",3.9
9,"O=C(c1nc2n(n1)[C@H](c1ccccc1)C[C@@H]2F)N1CCc2cnccc2C1 (racemic) [Example 75, 3.4-dihydro-1H-2,6-naphthyridin-2-yl-[rac-(5S,7S)-7-fluoro-5-phenyl-6,7-dihydro-5H-pyrrolo[1,2-b][1,2,4]triazol-2-yl]methanone]",0.29
10,"O=C(c1nc2n(n1)[C@H](c1ccccc1)C[C@@H]2F)N1CCCC1C(F)F (mixture of isomers) [Example 78, [2-(difluoromethyl)pyrrolidin-1-yl]-[rac-(5S, 7S)-7-fluoro-5-phenyl-6,7-dihydro-5H-pyrrolo[1,2-b][1,2,4]triazol-2-yl]methanone]",0.06
11,"O=C(c1nc2n(n1)[C@H](c1ccccc1)C[C@@H]2F)N1CCC[C@H]1C(F)(F)F (racemic) [Example 82, [rac-(5S,7S)-7-fluoro-5-phenyl-6,7-dihydro-5H-pyrrolo[1,2-b][1,2,4]triazol-2-yl]-[rac-(2S)-2-(trifluoromethyl)pyrrolidin-1-yl]methanone]",0.45
12,"O=C(c1nc2n(n1)[C@H](c1ccccc1)C[C@@H]2F)N1CCC[C@@H]1C(F)(F)F (racemic) [Example 83, [rac-(5S,7S)-7-fluoro-5-phenyl-6,7-dihydro-5H-pyrrolo[1,2-b][1,2,4]triazol-2-yl]-[rac-(2R)-2-(trifluoromethyl)pyrrolidin-1-yl]methanone]",0.35
13,"O=C(c1nc2n(n1)[C@H](c1ccccc1)C[C@@H]2F)N1CCCC1C(F)(F)F (mixture of isomers) [Example 84, [rac-(5S,7S)-7-fluoro-5-phenyl-6,7-dihydro-5H-pyrrolo[1,2-b][1,2,4]triazol-2-yl]-[2-(trifluoromethyl)pyrrolidin-1-yl]methanone]",0.3
14,"C[C@H]1[C@H](C(F)(F)F)CCN1C(=O)c1nc2n(n1)[C@H](c1ccccc1)C[C@@H]2F (racemic) [Example 85, [rac-(5S,7S)-7-fluoro-5-phenyl-6,7-dihydro-5H-pyrrolo[1,2-b][1,2,4]triazol-2-yl]-[rac-(2S,3R)-2-methyl-3-(trifluoromethyl)pyrrolidin-1-yl]methanone]",0.33

# More lines, now with the values ahead:
row,Ki [µM],SMILES
1,0.009,"O=C(c1nc2n(n1)[C@H](c1ccccc1)C[C@@H]2F)N1CC[C@@H]1C(F)F (racemic) [Example 53, [rac-(2R)-2-(difluoromethyl)azetidin-1-yl]-[rac-(5S,7S)-7-fluoro-5-phenyl-6,7-dihydro-5H-pyrrolo[1,2-b][1,2,4]triazol-2-yl]methanone]"
2,0.52,"COCCN(CC(F)F)C(=O)c1nc2n(n1)[C@@H](c1ccccc1)C[C@H]2F (racemic) [Example 56, rac-(5R,7R)-N-(2,2-difluoroethyl)-7-fluoro-N-(2-methoxyethyl)-5-phenyl-6,7-dihydro-5H-pyrrolo[1,2-b[[1,2,4]triazole-2-carboxamide]"
3,0.51,"O=C(c1nc2n(n1)[C@H](c1ccccc1)C[C@@H]2F)N(CC(F)(F)F)C1COC1 (racemic) [Example 57, rac-(5S,7S)-7-fluoro-N-(oxetan-3-yl)-5-phenyl-N-(2,2,2-trifluoroethyl)-6,7-dihydro-5H-pyrrolo[1,2-b][1,2,4]triazole-2-carboxamide]"
4,0.57,"O=C(c1nc2n(n1)[C@H](c1ccccc1)C[C@@H]2F)N(CC(F)F)C1CC1 (racemic) [Example 58, rac-(5S,7S)-N-cyclopropyl-N-(2,2-difluoroethyl)-7-fluoro-5-phenyl-6,7-dihydro-5H-pyrrolo[1,2-b][1,2,4]triazole-2-carboxamide]"
5,0.017,"O=C(c1nc2n(n1)[C@H](c1ccccc1)C[C@@H]2F)N1CCC1C(F)F (mixture of isomers) [Example 60, [2-(difluoromethyl)azetidin-1-yl]-[rac-(5S,7S)-7-fluoro-5-phenyl-6,7-dihydro-5H-pyrrolo[1,2-b][1,2,4]triazol-2-yl]methanone]"
6,0.13,"CC1CN(C(=O)c2nc3n(n2)[C@H](c2ccccc2)C[C@@H]3F)Cc2ccnn21 (mixture of isomers) [Example 62, (7-methyl-6,7-dihydro-4H-pyrazolo[1,5-a]pyrazin-5-yl)-[rac-(5S,7S)-7-fluoro-5-phenyl-6,7-dihydro-5H-pyrrolo[1,2-b][1,2,4]triazol-2-yl]methanone]"
7,0.69,"O=C(c1nc2n(n1)[C@H](c1ccccc1)C[C@@H]2F)N1CCC[C@@H]1CO (racemic) [Example 71, [rac-(5S,7S)-7-fluoro-5-phenyl-6,7-dihydro-5H-pyrrolo[1,2-b][1,2,4]triazol-2-yl]-[rac-(2R)-2-(hydroxymethyl)pyrrolidin-1-yl]methanone]"
8,0.082,"O=C(c1nc2n(n1)[C@H](c1ccccc1)C[C@@H]2F)N1CC(F)(F)C[C@H]1CF (racemic) [Example 73, [rac-(2S)-4,4-difluoro-2-(fluoromethyl)pyrrolidin-1-yl]-[rac-(5S,7S)-7-fluoro-5-phenyl-6,7-dihydro-5H-pyrrolo[1,2-b] [1,2,4]triazol-2-yl]methanone]"
9,0.061,"O=C(c1nc2n(n1)[C@H](c1ccccc1)C[C@@H]2F)N1CCC(Oc2ccccc2)C1 (mixture of isomers) [Example 77, (3-phenoxypyrrolidin-1-yl)-[rac-(5S,7S)-7-fluoro-5-phenyl-6,7-dihydro-5H-pyrrolo[1,2-b][1,2,4]triazol-2-yl]methanone]"
10,0.79,"O=C(c1nc2n(n1)[C@H](c1ccccc1)C[C@@H]2F)N1CCCC(F)(F)C1 (racemic) [Example 79, (3,3-difluoro-1-piperidyl)-[rac-(5S,7S)-7-fluoro-5-phenyl-6,7-dihydro-5H-pyrrolo[1,2-b][1,2,4]triazol-2-yl] methanone]"
11,0.1,"O=C(c1nc2n(n1)[C@H](c1ccccc1)C[C@@H]2F)N1CCCn2nccc21 (racemic) [Example 80, 6,7-dihydro-5H-pyrazolo[1,5-a]pyrimidin-4-yl-[rac-(5S,7S)-7-fluoro-5-phenyl-6,7-dihydro-5H-pyrrolo[1,2-b][1,2,4]triazol-2-yl]methanone]"
12,0.25,"O=C(c1nc2n(n1)[C@H](c1ccccc1)C[C@@H]2F)N1CCC(C(F)(F)F)n2nccc21 (mixture of isomers) [Example 81, [rac-(5S,7S)-7-fluoro-5-phenyl-6,7-dihydro-5H-pyrrolo[1,2-b][1,2,4]triazol-2-yl]-[7-(trifluoromethyl)-6,7-dihydro-5H-pyrazolo [1,5-a]pyrimidin-4-yl]methanone]"
